# From ChEMBL document CHEMBL1153899, “Discovery of benzothiazole derivatives as efficacious and enterocyte-specific MTP inhibitors” (Bioorg Med Chem Lett, 2009)
# Activity calls are given as the source filed them. The rule behind the calls is not given here.
# Assays:
# Mus musculus [1] = experiment: Decrease in total food intake in 3-day high fat diet fed C57BL/6 mouse at 10 mg/kg, po daily for 3 days; format: functional
# [2] = Inhibition of MTP from dog liver microsomes by scintillation counting; design: species or system Canis lupus familiaris, Microsome
# HepG2 = experiment: Inhibition of apoB secretion in human HepG2 cells after 40 hrs by ELISA; format: functional, cell-based; details: HepG2, 40 h
# Mus musculus [3] = experiment: Decrease in plasma triglyceride level in […] C57BL/6 mouse at 10 mg/kg, po daily for 3 days measured after 6 hrs; format: functional
# Mus musculus [4] = experiment: Increase in peptide YY level in 3-day high fat diet fed C57BL/6 mouse at 10 mg/kg, po daily for 3 days; format: functional, organism-based; design: dose 10 mg/kg
# Mus musculus [5] = experiment: Decrease in body weight in […] at 10 mg/kg, po daily for 3 days; format: functional, C57BL/6
SMILES,Activity (Mus musculus [1]),IC50 [2] [nM],IC50 (HepG2) [nM],Activity (Mus musculus [3]),Activity (Mus musculus [4]),Activity (Mus musculus [5])
Cc1cccc(C(=O)Nc2ccc3nc(C(=O)N[C@H](C(=O)N(C)Cc4ccc(F)cc4)c4ccccc4)sc3c2)c1-c1ccc(C(C)(C)C)cc1,Active,4.7,2.9,Active,Active,Active
CN(Cc1ccc(F)cc1)C(=O)[C@@H](NC(=O)c1nc2ccc(NC(=O)c3ccccc3-c3cn4ccsc4n3)cc2s1)c1ccccc1,inactive,14.8,23.7,inactive,inactive,inactive
CC(C)(C)c1ccc(-c2ccccc2C(=O)Nc2ccc3nc(C(=O)N[C@H](C(=O)N4CCC(F)(F)C4)c4ccccc4)sc3c2)cc1,,,8.8,,,
COc1cccc(C(=O)Nc2ccc3nc(C(=O)N[C@H](C(=O)N(C)Cc4ccc(F)cc4)c4ccccc4)sc3c2)c1-c1ccc(C(C)(C)C)cc1,Active,7.9,2.4,Active,Active,Active
CC(C)(C)c1ccc(-c2ccccc2C(=O)Nc2ccc3nc(C(=O)N[C@@H](C(=O)N4CCCC4)c4ccccc4)sc3c2)cc1,,,34.8,,,
CN(Cc1ccc(F)cc1)C(=O)[C@@H](NC(=O)c1nc2ccc(NC(=O)c3ccccc3-c3cn4ccccc4n3)cc2s1)c1ccccc1,inactive,13,4.2,inactive,inactive,inactive
CN(Cc1ccc(F)cc1)C(=O)[C@@H](NC(=O)c1nc2ccc(NC(=O)c3ccccc3-c3ccc(C(C)(C)C)cc3)cc2s1)c1ccccc1,Active,3,2.7,Active,Active,Active
CN(Cc1ccc(F)cc1)C(=O)[C@@H](NC(=O)c1nc2ccc(NC(=O)c3ccccc3-c3nc(C(C)(C)C)cs3)cc2s1)c1ccccc1,inactive,4.6,4,inactive,inactive,inactive
